From patent publication EP4178959B1, “NITROGEN HETEROCYCLIC CYTOKININ DERIVATIVES, COMPOSITIONS CONTAINING THESE DERIVATIVES AND USE THEREOF” (Univerzita Palackého v Olomouci, priority 2020, dated 2022)

Experiments:
[1] = Calcein AM cytotoxicity assay, NIH3T3 cells; conditions: mouse; for CC50 at 72 h: nih3t3 cells
Procedure: (§1) All compound concentrations were examined in duplicates. […] Zero cytotoxicity is a basic prerequisite for the use of these substances in cosmetical applications. To assess the antitumor activity, the toxicity of new derivatives on panels containing cell lines of different histogenic and species origin was tested (Table 5). […] The compounds listed in Table 5 can be divided into 2 groups.
(§2) The first group contains "classical cytokinins" represented by 6-substituted purines (their effects are already known). The second group includes novel 2-fluoro-N6-substituted-9-(2-oxacycloalkyl)-9H-purine-6-amine derivatives. […] Low cytotoxicity (high IC50 value) of the compounds is the basic prerequisite for cosmetic and medical applications. […] Table 5: Cytotoxicity of novel compounds for different normal cell lines tested / IC50 (µmol/L)

Arabidopsis thaliana [2] = assay: Effect on the root proliferation of Arabidopsis thaliana; type: in vivo, Arabidopsis thaliana (ecotype Columbia); conditions: for Concentration with highest activity: number of lateral roots; for Activity (%) [10^-8 mol.l^-1 Kin = 100%]: number of lateral roots (% of control), at concentration with highest activity
Procedure: Arabidopsis thaliana seeds (ecotype Columbia) were sterilized with 70% ethanol and 0.1% Triton X-100 and then washed with 70% ethanol containing 0.01% Triton X-100. Then the seeds were transferred to vertical square petri dishes (11 seeds per dish) on a solid medium consisting of MS (2.15 g/l), MES (0.5 g/l), sucrose (1 g/l), agar (11 g/l), buffered to pH 5.8, and various concentrations of tested compounds. The compounds were dissolved in DMSO, thus 0.05% DMSO was used as a control solution. After incubation for 3 days in darkness at 4°C, the seeds were germinated and grown in an environmental chamber (fluorescence light intensity 150 µE m^-2 s^-1, humidity 55%, 16 h day/8 h night, 22°C). […] The number of lateral roots was scored under a stereomicroscope. […] In addition, compounds with tetrahydropyranyl protection at N9 slightly increase the number of emerged lateral roots (Fig 3C). […] Table 6: […]

excised wheat leaf tips = assay: Senescence inhibition on winter wheat leaf segments (chlorophyll retention); set-up: species or system Triticum aestivum cv. Hereward; conditions: for Concentration with highest activity: retention of chlorophyll; for Activity (%) [10^-4mol.l^-1 KTHP = 100%] / Emax: retention of chlorophyll in excised wheat leaf tips, 96 h in the dark, at concentration with highest activity; for Emax: Triticum aestivum, foliar, read-out: Activity (%) [10^-4mol.l^-1 KTHP = 100%]
Procedure: Seeds of winter wheat, Triticum aestivum cv. Hereward, were washed under running water for 24 hours and then sown on vermiculite soaked with the Knop's solution. They were placed in the grow chamber at 25 °C with a 16/8 h light period at 50 μmol.m^-2.s^-1. After 7 days, the first leaf was fully developed and the second leaf had started to grow. A tip section of the first leaf, approximately 35 mm long, was removed from 5 seedlings and trimmed slightly to a combined weight of 100 mg. The basal ends of the five leaf tips were placed in the wells of a microtiter polystyrene plate containing 150 μl of the solution of the tested compound each. The entire plate was inserted into a plastic box lined with paper tissues soaked with distilled water to prevent leaf sections from drying out. […] The absorbance of the extract was recorded at 665 nm. In addition, chlorophyll extracts from fresh leaves and leaf tips incubated in deionised water were measured. From the obtained data, the concetration with the highest activity was selected for each compound tested. Relative activity of the compound at this concentration was calculated (Table 7). […] The values shown are means of five replicates and the whole experiment was repeated twice. The compounds to be tested were dissolved in dimethylsulfoxide (DMSO) and the solution brought up to 10^-3 M with distilled water. […] The compounds listed in Table 7 can be divided into 2 groups. The first group contains "classical 6,9-disubstituted purines (KTHP as a control)" known in prior art. […] Table 9: […]

[3] = Calcein AM cytotoxicity assay, BJ cells; conditions: human; for CC50 at 72 h: bj fibroblasts
Procedure: as §1, §2

[4] = Calcein AM cytotoxicity assay, B10A.4 cells; conditions: mouse; for CC50 at 72 h: b10a.4 macrophages
Procedure: as §1, §2

Zea mays seedlings = assay: Effect on development of Zea mays seedlings (hydroponic); type: in vivo, Zea mays cv. CELLUX; conditions: for Root dry mass (%) [4 x 10^-8 mol.l^-1 Kin = 100%] / Shoot dry mass (%) [10^-6 mol.l^-1 Kin = 100%]: at concentration with highest activity
Procedure: Maize seeds (Zea mays cv. CELLUX) were imbibed in tap water and germinated on a wetted filter paper. After 3 days, the germinated seedlings were transferred to aerated hydroponic tanks filled with Hoagland's nutrient solution. The plants were grown in an environmental chamber with 16 h light period (250 μE m^-2 s^-1) at 27°C and 8 h dark period at 20°C. Tested compounds diluted in DMSO were added to nutrient solution immediately when seedlings were nested in the tanks or after two additional days of cultivation. Control plants were grown in parallel with addition of corresponding amount of DMSO (up to 0.01%). Root and leaf tissues of ten plants were harvested at different time points after the application of the compounds, immediately frozen in liquid nitrogen and used for cytokinin content and transcript level analysis. Length of primary root and the first leaf were determined with ruler on sets of twelve plants, each cultivated in the independent tank (for every cytokinin application repeated ten times). Dry mass of root system and the aerial part was determined after cutting off the kernel and desiccation in dryer for two days at 60°C. […] Fig. 4) and up to 1 micromolar concentration when more seedlings were in the solution (approx. 50 seedlings per 1 liter; Fig. 5). […] Table 7: […]

Mouse fibroblasts NIH3T3 = assay: Calcein AM cytotoxicity assay, NIH3T3 cells; conditions: read-out: Cytotoxicity IC50, NIH-3T3; Calcein AM, 72 hours
Procedure: as §1, §2

[5] = tested on: BJ (human foreskin fibroblasts); assay: Calcein AM cytotoxicity assay, BJ cells; conditions: read-out: Cytotoxicity IC50, BJ; Calcein AM, 72 hours
Procedure: as §1, §2

[6] = tested on: mouse immortalized bone marrow macrophages B10A.4; assay: Calcein AM cytotoxicity assay, B10A.4 cells; conditions: read-out: Cytotoxicity IC50, B10A.4, first column headed B10A.4, 72 hours
Procedure: as §1, §2

Arabidopsis thaliana [7] = assay: Arabidopsis root growth inhibition test; type: in vivo, Arabidopsis thaliana (ecotype Columbia); conditions: for Primary root length 7-d, WT = 100%: 7-d-old plants
Procedure: Arabidopsis thaliana seeds (ecotype Columbia) were sterilized with 70% ethanol and 0.1% Triton X-100 and then washed 4 times with sterile water. The seeds were transferred to Petri dishes on a solid medium consisting of MS (2.2 g l^-1), sucrose (10 g l^-1), agar (8 g l^-1), and supplemented with cytokinins or DMSO control (0.1% DMSO). After incubation for 3 days in darkness at 4°C, the seeds were germinated and grown horizontally in an environmental chamber at 22/20 °C under an 8 h light (120 µmol photons m^-2 s^-1)/16 h dark cycle for 4 days. 7-d-old seedling were used for measurements of the primary root length. At least 35 plants were used for each treatment and each treatment was repeated in at least 5 individual Petri dishes. The length of the primary root was evaluated using Scion Image software (Scion Corporation, Frederick, MD, USA). All measured parameters were statistically evaluated between untreated and treated plants according to Student's unpaired t-test. […] Tab. Inhibition of the primary root growth in 7-d-old Arabidopsis plants. 100% = WT plants, DMSO treated.

[8] = Cytotoxicity IC50, B10A.4, first column headed B10A.4
[9] = tested concentration 0.04 µmol.l^-1
[10] = tested concentration 1 µmol.l^-1
[11] = tested concentration 25 µmol.l^-1

Structure (SMILES) | CC50 at 72 h [1] [µM] | Concentration with highest activity (Arabidopsis thaliana [2]) | Activity (%) [10^-8 mol.l^-1 Kin = 100%] (Arabidopsis thaliana [2]) | Concentration with highest activity (excised wheat leaf tips) | Activity (%) [10^-4mol.l^-1 KTHP = 100%] (excised wheat leaf tips) | CC50 at 72 h [3] [µM] | CC50 at 72 h [4, 8] [µM] | Root dry mass (%) [4 x 10^-8 mol.l^-1 Kin = 100%] (Zea mays seedlings) | Shoot dry mass (%) [10^-6 mol.l^-1 Kin = 100%] (Zea mays seedlings) | Concentration with highest activity (Zea mays seedlings; root dry mass) | Concentration with highest activity (Zea mays seedlings; shoot dry mass) | IC50 at 72 h [1] [µM] | Emax (excised wheat leaf tips) [%] | IC50 at 72 h [3] [µM] | IC50 at 72 h [4, 8] [µM] | other results
COc1cccc(CNc2nc(F)nc3c2ncn3C2CCCO2)c1 (stereo not shown) [Compound 18] | > 167 | 10^-5 mol.l^-1 | 28.6 (± 2) % | 10^-4 mol.l^-1 | 175.8 (± 10) % | > 167 | > 167 | 240.6 (± 22) % | 148.2 (± 8) % | 10^-7 mol.1^-1 | 10^-6 mol.1^-1 |  |  |  |  | 
C/C(=C/CNc1nc(F)nc2c1ncn2C1CCCCO1)CO (stereo not shown) [Compound 71] | > 167 | 10^-6 mol.l^-1 | 71.8 (± 7) % | 10^-4 mol.l^-1 | 113 (± 18) % | > 167 | > 167 | 172.5 (± 14) % | 111.1 (± 6) % | 10^-7 mol.1^-1 | 10^-6 mol.1^-1 |  |  |  |  | 
COc1ccccc1CNc1nc(F)nc2c1ncn2C1CCCO1 (stereo not shown) [Compound 17, 2-Fluoro-6-[(2-methoxybenzyl)amino]-9-(tetrahydrofuran-2-yl)-9H-purine] |  | 10^-5 mol.l^-1 | 30.7 (± 7) % |  |  |  |  | 241.5 (± 19) % | 139.8 (± 7) % | 10^-7 mol.1^-1 | 10^-6 mol.1^-1 | > 167 | 104 | > 167 | > 167 | 
C/C(=C\CO)CNc1nc(F)nc2c1ncn2C1CCCO1 (stereo not shown) [Compound 6] |  | 10^-5 mol.l^-1 | 48.5 (± 6) % | 10^-4 mol.l^-1 | 138.2 (± 17) % |  |  | 167.2 (± 14) % | 121.2 (± 6) % | 10^-7 mol.1^-1 | 10^-6 mol.1^-1 |  |  |  |  | CC50 (Mouse fibroblasts NIH3T3): > 167 µM; CC50 [5]: > 167 µM; CC50 [6]: > 167 µM
Oc1cccc(CNc2nc(F)nc3c2ncn3C2CCCCO2)c1 (stereo not shown) [Compound 65, 2-Fluoro-6-[(3-hydroxybenzyl)amino]-9-(tetrahydro-2H-pyran-2-yl)-9H-purine] |  | 10^-5 mol.l^-1 | 32.6 (± 6) % |  |  |  |  | 187.3 (± 18) % | 121.6 (± 7) % | 10^-7 mol.1^-1 | 10^-6 mol.1^-1 | > 167 | 128 | > 167 | > 167 | root growth inhibition (in words) (Arabidopsis thaliana [7]; compared to WT, 7-d-old seedlings): did not caused the inhibition of root; Primary root length 7-d, WT = 100% (Arabidopsis thaliana [7]; [9]): 102.9 (±11.0) %; Primary root length 7-d, WT = 100% (Arabidopsis thaliana [7]; [10]): 40.6 (±2.1) %; Primary root length 7-d, WT = 100% (Arabidopsis thaliana [7]; [11]): 31.3 (±1.8) %
CC(CO)CCNc1nc(F)nc2c1ncn2C1CCCCO1 (stereo not shown) [Compound 72] | > 167 | 10^-6 mol.l^-1 | 68.5 (± 2) % | 10^-4 mol.l^-1 | 103 (± 7) % | > 167 | > 167 | 161.3 (± 21) % | 104.8 (± 7) % | 10^-7 mol.1^-1 | 10^-6 mol.1^-1 |  |  |  |  | 
Oc1cccc(CNc2nc(F)nc3c2ncn3C2CCCO2)c1 (stereo not shown) [Compound 15, 2-Fluoro-6-[(3-hydroxybenzyl)amino]-9-(tetrahydrofuran-2-yl)-9H-purine] |  | 10^-5 mol.l^-1 | 24.8 (± 4) % |  |  |  |  | 201.4 (± 22) % | 124.3 (± 8) % | 10^-7 mol.1^-1 | 10^-6 mol.1^-1 | > 167 | 133 | > 167 | > 167 | 
Oc1cccc(CNc2nc(F)nc3c2ncn3C2CCCO2)c1O (stereo not shown) [Compound 29] |  |  |  | 10^-4 mol.l^-1 | 15 (±5) % |  |  |  |  |  |  |  |  |  |  | CC50 (Mouse fibroblasts NIH3T3): > 167 µM; CC50 [5]: > 167 µM; CC50 [6]: > 167 µM
Fc1nc(NCc2ccco2)c2ncn(C3CCCCO3)c2n1 (stereo not shown) [Compound 57, 2-Fluoro-6-furfurylamino-9-(tetrahydro-2H-pyran-2-yl)-9H-purine] |  | 10^-6 mol.l^-1 | 68.4 (± 8) % |  |  |  |  | 183.9 (± 24) % | 112.8 (± 11) % | 10^-7 mol.1^-1 | 10^-6 mol.1^-1 | 138 | 111 | 132 | 149 | 
Oc1cccc(CNc2ncnc3[nH]cnc23)c1 [meta-topolin, reference compound] | 167 |  |  |  |  | 166 | > 167 |  |  |  |  |  |  |  |  | Primary root length 7-d, WT = 100% (Arabidopsis thaliana [7]; [9]): 67.1 (±7.2) %; Primary root length 7-d, WT = 100% (Arabidopsis thaliana [7]; [10]): 33.9 (±2.0) %; Primary root length 7-d, WT = 100% (Arabidopsis thaliana [7]; [11]): 19.3 (±2.3) %; CC50 at 72 h ([4]; Cytotoxicity IC50, B10A.4, second column headed B10A.4): 178 µM
